The target of this test is PIK3CG (human) (UniProt P48736). Kind of test: Inhibition of PIK3CG Kinase Activity.

Where “and” joins values, the source holds several entries; their conditions need not be identical. Identical values can stand only once.

PIK3CG (human), sequence (P48736 whole entry, looked up): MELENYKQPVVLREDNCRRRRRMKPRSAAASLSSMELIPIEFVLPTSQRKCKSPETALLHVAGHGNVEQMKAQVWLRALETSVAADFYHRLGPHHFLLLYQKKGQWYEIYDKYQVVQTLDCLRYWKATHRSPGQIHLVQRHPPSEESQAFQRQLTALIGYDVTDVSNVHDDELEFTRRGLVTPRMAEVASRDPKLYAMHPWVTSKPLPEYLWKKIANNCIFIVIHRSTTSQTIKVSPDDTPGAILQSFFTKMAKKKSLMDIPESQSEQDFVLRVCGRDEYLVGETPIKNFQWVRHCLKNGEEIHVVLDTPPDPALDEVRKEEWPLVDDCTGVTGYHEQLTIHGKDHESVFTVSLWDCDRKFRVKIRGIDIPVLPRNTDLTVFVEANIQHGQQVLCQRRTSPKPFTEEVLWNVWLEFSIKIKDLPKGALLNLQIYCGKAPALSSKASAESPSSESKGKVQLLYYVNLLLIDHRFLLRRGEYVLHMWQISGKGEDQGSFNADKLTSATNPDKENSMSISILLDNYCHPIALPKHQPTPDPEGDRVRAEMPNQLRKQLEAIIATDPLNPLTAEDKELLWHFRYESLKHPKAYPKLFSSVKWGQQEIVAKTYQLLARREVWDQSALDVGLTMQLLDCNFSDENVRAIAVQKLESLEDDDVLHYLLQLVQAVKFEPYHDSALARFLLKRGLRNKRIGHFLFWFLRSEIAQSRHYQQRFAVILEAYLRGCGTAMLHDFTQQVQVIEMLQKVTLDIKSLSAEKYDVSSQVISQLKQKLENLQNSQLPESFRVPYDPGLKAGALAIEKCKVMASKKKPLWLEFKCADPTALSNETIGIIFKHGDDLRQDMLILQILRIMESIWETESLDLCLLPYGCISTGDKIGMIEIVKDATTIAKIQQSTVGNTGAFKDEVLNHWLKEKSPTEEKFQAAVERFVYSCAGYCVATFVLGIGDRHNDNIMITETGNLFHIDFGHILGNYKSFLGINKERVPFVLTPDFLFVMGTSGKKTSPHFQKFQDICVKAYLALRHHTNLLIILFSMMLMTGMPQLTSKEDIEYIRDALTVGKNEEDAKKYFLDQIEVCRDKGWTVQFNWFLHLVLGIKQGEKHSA

For `CCOCCOc1cc(-c2cc(C)c3c(n2)CN(c2cnn(CC(F)(F)F)c2)C3=O)cnc1OC`, the Ki was under 100 nM.
Compound `COc1cc(-c2cc(C)c3c(n2)CN(c2cnn(C(C)(C)C(N)=O)c2)C3=O)cnc1OC` came in with a Ki of under 100 nM.
In turn, `COCCC1c2nc(-c3cnc(OC)c(OC)c3)cc(C)c2C(=O)N1c1cnn(CC(F)(F)F)c1` (stereo not given) gave a Ki of under 100 nM.
Regarding `COc1cncc(-c2cc(C)c3c(n2)CN(c2cnn(C[C@H](C)F)c2)C3=O)c1`, the Ki was under 100 nM.
The compound `COc1cncc(-c2cc(C)c3c(n2)[C@H](OC)N(c2cnn(CC(F)(F)F)c2)C3=O)c1` yielded a Ki of under 100 nM.
Turning to `CCn1cc(N2Cc3nc(-c4cnc(OC)c(OC(C)C)c4)cc(C)c3C2=O)cn1`, the Ki was under 100 nM.
For the compound `Cc1cc(-c2cncc([S+](C)[O-])c2)nc2c1C(=O)N(c1cnn(CC(F)(F)F)c1)C2(C)C` (stereo not given), the Ki is 100 to 490 nM and < 100 nM.
Regarding `CCOc1cc(-c2cc(C)c3c(c2)C(C)N(c2cnn(CC(F)(F)F)c2)C3=O)cnc1OCC` (stereo not given), the Ki was under 100 nM.
`COc1cc(-c2cc(C)c3c(n2)CN(c2cnn(C[C@H](C)O)c2)C3=O)cnc1OC` yielded a Ki of under 100 nM.
In turn, `COc1cc(-c2ccc3c(n2)CN(c2cnn(CCN4CCCCC4)c2)C3=O)cnc1OC` showed a Ki of 100 to 490 nM.
On to `COc1ncc(-c2cc(C)c3c(n2)CN(c2cnn(CC(F)(F)F)c2)C3=O)cc1OCC1CCCCO1` (stereo not given), for which the Ki was under 100 nM.
The compound `Cc1cc(-c2cncc(C(=O)N(C)C)c2)nc2c1C(=O)N(c1cnn(CC(F)(F)F)c1)C2(C)C` registered a Ki of 100 to 490 nM.
Regarding `CCn1cc(N2Cc3nc(-c4cnc(OC)c(OC)c4)cc(C)c3C2=O)cn1`, the inhibition constant Ki is under 100 nM.
`COc1cc(-c2ccc3c(n2)C(C)N(c2cccc(C(O)C(F)(F)F)n2)C3=O)cnc1OC` (stereo not given) had a Ki of under 100 nM.
Under `Cc1cc(-c2cncc(S(C)(=O)=O)c2)nc2c1C(=O)N(c1cnn(CC(F)(F)F)c1)[C@@H]2C` stands under 100 nM; under `COc1cc(-c2ccc3c(n2)CN(c2cnn(CC4CCCN4)c2)C3=O)cnc1OC` (stereo not given), 100 to 490 nM; under `CCCOC1c2nc(-c3cnc(OC)c(OC)c3)cc(C)c2C(=O)N1c1cnn(CC(F)(F)F)c1` (stereo not given), under 100 nM.
Next, `CCOc1ncc(-c2cc(C)c3c(n2)CN(c2cnn(CC#N)c2)C3=O)cc1OC`: under 100 nM.
`Cc1cc(-c2cnc(C)c(OCC(F)(F)F)c2)nc2c1C(=O)N(c1cnn(CC(F)(F)F)c1)C2(C)C` showed a Ki of under 100 nM.
The compound `COc1cc(-c2ccc3c(c2)CN(c2cn(C)nn2)C3=O)cnc1OC` had a Ki of under 100 nM.
Under `COc1ncc(-c2cc(C)c3c(n2)C(C)(C)N(c2cnn(CC(F)(F)F)c2)C3=O)cc1C(=O)N(C)C` stands under 100 nM.
Under `COc1cc(-c2ccc3c(n2)C(C)N(c2ccn(C[C@@H](C)O)n2)C3=O)cnc1OC` (stereo not given in full) stands under 100 nM; under `C=C(F)Cn1cc(N2Cc3nc(-c4cnc(OC)c(OC)c4)ccc3C2=O)cn1`, under 100 nM; under `COc1cc(-c2ccc3c(n2)CN(c2ccc(N4CCC(CCO)CC4)nc2)C3=O)cnc1OC`, under 100 nM.
Under `CCn1ccc(N2Cc3nc(-c4cnc(OC)c(OCC(F)F)c4)cc(C)c3C2=O)n1` stands under 100 nM; under `CCOc1ncc(-c2cc(C)c3c(n2)CN(c2ccon2)C3=O)cc1OC`, under 100 nM; under `COCCOc1ncc(-c2cc(C)c3c(n2)[C@@H](C)N(c2ccn(C)n2)C3=O)cc1OC`, under 100 nM.
For `Cc1cc(-c2cncc(S(C)(=O)=O)c2)nc2c1C(=O)N(c1cnn(CC(F)(F)F)c1)C2(C)C`, the Ki was under 100 nM.
`COCn1cc(N2Cc3nc(-c4cnc(OC)c(OC)c4)ccc3C2=O)cn1` registered a Ki of under 100 nM.
`C#CCn1cc(N2Cc3cc(-c4cnc(OC)c(OC)c4)ccc3C2=O)cn1` had an inhibition constant Ki of under 100 nM.
`CCOc1ncc(-c2cc(C)c3c(n2)CN(c2cn(CC(F)(F)F)cn2)C3=O)cc1OC` yielded a Ki of under 100 nM.
`COc1cc(-c2cc(C)c3c(n2)CN(c2cn(C)cn2)C3=O)cnc1OC` yielded a Ki of under 100 nM.
Take `CC[C@@H]1c2nc(-c3cnc(OC)c(OC)c3)ccc2C(=O)N1c1cnn(CC(F)(F)F)c1`: the Ki is under 100 nM.
`CCc1ncc(-c2cc(C)c3c(n2)CN(c2cnn(CC(F)(F)F)c2)C3=O)cc1OC` returned a Ki of under 100 nM.
`Cc1cc(-c2cncc(OC(F)F)c2)nc2c1C(=O)N(c1ccnc(F)c1)C2C` (stereo not given) had a Ki of under 100 nM.
For `COc1cc(-c2cc(C)c3c(n2)CN(c2ccnc(OCC(F)F)c2)C3=O)cnc1OC`, the Ki was under 100 nM.
`CCOc1ncc(-c2cc(C)c3c(n2)C2(CCOCC2)N(c2cnn(CC(F)(F)F)c2)C3=O)cc1OC` gave a Ki of under 100 nM.
Take `CCn1ccc(N2C(=O)c3ccc(-c4cnc(OC)c(OC)c4)nc3C2C)n1` (stereo not given): the Ki is under 100 nM.
In turn, `CCn1cc(N2Cc3cc(-c4ccc(OC)c(OC)n4)ccc3C2=O)cn1` showed a Ki of 100 to 490 nM.
On to `CCOc1ncc(-c2cc(C)c3c(n2)C2(CCCO2)N(c2cnn(CC(F)(F)F)c2)C3=O)cc1OC` (stereo not given), for which the Ki is under 100 nM.
Under `COCCOc1ncc(-c2cc(C)c3c(c2)CN(c2cnn(CC(F)(F)F)c2)C3=O)cc1OC` stands under 100 nM; under `COc1cc(-c2ccc3c(n2)C2(CCOCC2)N(c2cnn(CC(F)(F)F)c2)C3=O)cnc1OC`, under 100 nM; under `O=C1c2ccc(-c3cncc(OC(F)F)c3)nc2CN1c1cc[nH]n1`, 100 to 490 nM.
Next, `COc1cc(-c2ccc3c(n2)[C@@H](C)N(c2ccn(C[C@@H](C)O)n2)C3=O)cnc1OC`: under 100 nM; `COc1cc(-c2ccc3c(n2)CN(c2ccc(OCC#N)nc2)C3=O)cnc1OC`: 100 to 490 nM; `COc1cc(-c2ccc3c(n2)CN(c2ccc(N(C)CC4CCCO4)nc2)C3=O)cnc1OC` (stereo not given): 100 to 490 nM.
`CCn1ncc(N2Cc3cc(-c4cnc(OC)c(OC)c4)ccc3C2=O)n1` returned a Ki of under 100 nM.
Regarding `COc1cc(-c2ccc3c(n2)C(N2CCOCC2)N(c2cnn(CC(F)(F)F)c2)C3=O)cnc1OC` (stereo not given), the inhibition constant (Ki) was in the range of 100 to 490 nM.
Next, `COc1cc(-c2ccc3c(n2)C(C)N(c2cnn(CC(C)(C)O)c2)C3=O)cnc1OC` (stereo not given): 100 to 490 nM; `COc1cc(-c2ccc3c(n2)CN(c2cnn(CC(F)(F)F)c2)C3=O)cnc1OC`: under 100 nM.
`Cc1cc(-c2cncc(OCC(F)F)c2)nc2c1C(=O)N(c1cnn(CC(F)(F)F)c1)[C@H]2C` yielded a Ki of under 100 nM.
`COc1cc(-c2ccc3c(n2)CN(c2cnn(CC4(C)COC4)c2)C3=O)cnc1OC` gave a Ki of under 100 nM.
Next, `COc1ccc(-c2cc(C)c3c(n2)CN(c2cnn(CC(F)(F)F)c2)C3=O)s1`: under 100 nM; `COCCn1cc(N2Cc3cc(-c4cnc(OC)c(OC)c4)ccc3C2=O)cn1`: 100 to 490 nM.
In turn, `COc1cncc(-c2cc(C)c3c(n2)C2(CCOCC2)N(c2cnn(CC(F)(F)F)c2)C3=O)c1` gave a Ki of under 100 nM.
In turn, `CC#CCn1cc(N2Cc3cc(-c4cnc(OC)c(OC)c4)ccc3C2=O)cn1` showed a Ki of 100 to 490 nM.
Turning to `COc1cc(-c2cc(C)c3c(n2)CN(c2cscn2)C3=O)cnc1OC`, the Ki was under 100 nM.
`Cc1cc(-c2cnc(C)c(OCC(F)F)c2)nc2c1C(=O)N(c1ccn([C@H]3CCOC3)n1)C2`: the Ki was under 100 nM.
For the compound `COc1cc(-c2ccc3c(n2)CN(c2cnn(CCCO)c2)C3=O)cnc1OC`, the Ki was under 100 nM.
As for `CCn1nc(N2Cc3cc(-c4cnc(OC)c(OC)c4)ccc3C2=O)cc1C`, the Ki was 100 to 490 nM.
`CCOC1c2nc(-c3cnc(OC)c(OC)c3)ccc2C(=O)N1c1cnn(CC(F)(F)F)c1` (stereo not given) yielded a Ki of under 100 nM.
As for `COc1cc(-c2cc(OC)c3c(n2)CN(c2cnn(CC#N)c2)C3=O)cnc1OC`, the Ki is under 100 nM.
With `COc1cc(-c2ccc3c(c2)CN(c2cccc(C(N)=O)c2)C3=O)cnc1OC`, the Ki is under 100 nM.
In turn, `COc1cc(-c2cc(C)c3c(n2)[C@H](OC)N(c2cnn(CC(F)(F)F)c2)C3=O)cnc1OC` came in with a Ki of under 100 nM.
In turn, `COc1ncc(-c2cc(C)c3c(n2)CN(c2ccn(C(C)(C)C#N)n2)C3=O)cc1OCC(F)F` came in with a Ki of under 100 nM.
Next, `Cc1cc(-c2cncc(C(=O)O)c2)nc2c1C(=O)N(c1cnn(CC(F)(F)F)c1)C2`: under 100 nM; `Cc1cc(-c2cncc(OC(F)F)c2)nc2c1C(=O)N(c1cnn(CC(F)(F)F)c1)[C@H]2C`: under 100 nM; `COc1cc(-c2cc(C)c3c(n2)CN(c2cnn(CC(F)F)c2)C3=O)cnc1OC`: under 100 nM.
Under `COc1cncc(-c2cc(C)c3c(n2)CN(c2ccn(CC(F)(F)F)n2)C3=O)c1` stands under 100 nM.
`COc1cc(-c2ccc3c(n2)CN(c2ccc(N4CCN(CCO)CC4)nc2)C3=O)cnc1OC` gave a Ki of under 100 nM.
Under `COc1cc(-c2ccc3c(n2)CN(c2ccnc(CC#N)c2)C3=O)cnc1OC` stands under 100 nM; under `COc1cc(-c2ccc3c(n2)CN(c2cn[nH]c2)C3=O)cnc1OC`, under 100 nM.
In turn, `Cc1cc(-c2cncc(OC(F)F)c2)nc2c1C(=O)N(c1cnn(C[C@H](C)O)c1)C2` displayed a Ki of under 100 nM.
Regarding `COc1cc(-c2ccc3c(n2)CN(c2cnn(Cc4cc(C)on4)c2)C3=O)cnc1OC`, the Ki was under 100 nM.
In turn, `Cc1cc(-c2cc(OC(F)(F)F)ccc2Cl)nc2c1C(=O)N(c1cnn(CC(F)(F)F)c1)C2` displayed a Ki of 100 to 490 nM.
Regarding `CCCOc1cc(-c2cc(C)c3c(n2)CN(c2ccn(C4COC4)n2)C3=O)cnc1OC`, the Ki is under 100 nM.
The compound `COc1cncc(-c2cc(C)c3c(n2)[C@@H](C)N(c2ccn(C)n2)C3=O)c1` gave an inhibitory constant (Ki) of under 100 nM.
Compound `COc1cc(N2Cc3nc(-c4cnc(OC)c(OC)c4)cc(C)c3C2=O)cnc1CO` showed a Ki of under 100 nM.
In turn, `Cc1cc(-c2cncc(C(=O)NCC3CC3)c2)nc2c1C(=O)N(c1cnn(CC(F)(F)F)c1)C2(C)C` gave a Ki of under 100 nM.
With `COc1ccc(-c2cc(C)c3c(c2)C(C)N(c2cnn(CC(F)(F)F)c2)C3=O)cc1OC` (stereo not given), the Ki is under 100 nM.
The compound `Cc1cc(-c2cncc(OC(F)F)c2)nc2c1C(=O)N(c1cn[nH]c1)[C@@H]2C` showed a Ki of under 100 nM.
Under `COc1cc(-c2cc(C)c3c(n2)CN(c2cnn(CC(F)(F)F)c2)C3=O)ccc1Cl` stands under 100 nM.
Next, `COc1cc(-c2ccc3c(n2)CN(c2cc(C)n(CC(F)(F)F)n2)C3=O)cnc1OC`: under 100 nM.
Turning to `COc1cc(-c2cc(C)c3c(n2)C(OC2CCC2)N(c2cnn(CC(F)(F)F)c2)C3=O)cnc1OC` (stereo not given), the Ki was under 100 nM.
On to `COc1cc(-c2ccc3c(n2)CN(c2cnn(Cc4ccn(C)n4)c2)C3=O)cnc1OC`, for which the Ki was under 100 nM.

Source of the values: the Kinase Knowledgebase extract (Sharma et al. 2016).
